Assay results taken from patent US7538096B2, “Treatment and prevention of abnormal cellular proliferation” (The General Hospital Corporation, priority 2004, dated 2009).
Like-named read-outs stand apart in the source and are kept apart here.

How the values were obtained:
[1] = tested on: coagulation; experiment: anticoagulant property (no test named)
[2] = tested on: E2F1; experiment: expression of E2F1 protein in A549 cell tumor tissue (FIG. 22); format: in vivo; details: A549 cell tumor tissue grown in SCID mice, dose dependent
[3] = tested on: tumor grown in SCID mice; experiment: apoptosis index in tumor grown in SCID mice (FIG. 19); format: in vivo
[4] = tested on: fibroblast; experiment: fibroblast proliferation; format: cell-based; details: unpublished data
[5] = tested on: Rb; experiment: expression of Rb gene product in A549 cell tumor tissue (FIG. 21); format: in vivo; details: A549 cell tumor tissue grown in SCID mice, dose dependent, lesser effect than on p27/KIP1, FIG. 21
[6] = tested on: coagulation; experiment: coagulation time (FIG. 13); details: for coagulation time: FIG. 13
[7] = histology of tumor tissue and organs from SCID mice bearing A549 cell tumor (FIGS. 14-18); format: in vivo
[8] = tested on: HCT116 (colon cancer) cell tumor; experiment: HCT116 cell tumor growth in SCID mice (FIGS. 11-12); format: in vivo; details: dose dependent
[9] = tested on: p27/KIP1; details: A549 cell tumor tissue grown in SCID mice, dose dependent, FIG. 20
[10] = tested on: A549 (non-small cell lung carcinoma) cell tumor; experiment: A549 cell tumor growth in SCID mice (FIGS. 6-8); format: in vivo; details: dose dependent
[11] = tested on: DMS79 (small cell lung carcinoma) cell tumor; experiment: DMS79 cell tumor growth in SCID mice (FIGS. 9-10); format: in vivo; details: dose dependent
[12] = tested on: bovine pulmonary artery smooth muscle cells; details: in vitro, in comparison to non-acylated heparin fragments
[13] = tested on: pulmonary artery smooth muscle cell; details: in vivo, FIG. 4
[14] = tested on: pulmonary hypertension induced by hypoxia; details: pig lung, FIG. 5
[15] = tested on: fibroblast; details: Dahlberg et al. Am Rev. Respir. Dis. 143:A357, 1993; cited from earlier work
[16] = tested on: pulmonary fibrosis in response to bleomycin; experiment: pulmonary fibrosis in the rat in response to bleomycin; format: in vivo

With “O-butanoylated LMW Heparin [butanoylated heparin]” the anticoagulant property [1] was “virtually no”, the “expression of E2F1 protein” value [2] was “significantly inhibited” and the apoptosis index [3] was “induction of apoptosis”. The fibroblast proliferation [4] was “can also inhibit”, the “expression of Rb gene product” value [5] was “decreased” and the coagulation time [6] was “no significant effect”. The anticoagulant effects ([6]; compared to non-acylated controls, FIGS. 13 and 14) was “very low”, the “toxic effect on heart, liver, kidney, and lung” value ([7]; animals tested, FIG. 15-18) was “no toxic effect” and the tumor growth ([8]; FIG. 11) was “significantly inhibited”. For the same substance, the tumor growth ([8]; FIG. 12) was “significantly inhibited”, the “expression of p27/KIP1 gene product” value [9] was “significantly inhibited” and the tumor growth ([10]; FIG. 6) was “significantly inhibited”. For the same substance, the tumor weight ([10]; FIG. 7) was “significantly decreased”, the “percent inhibition of tumor growth” value ([10]; FIG. 8) was “significantly inhibited” and the tumor growth ([11]; FIG. 9) was “significantly inhibited”. The tumor weight ([11]; FIG. 10) was “significantly decreased”.

For “O-Hexanoyl derivative of periodate-oxidized heparin fragments [hexanoylated heparin]”, the antiproliferative effect [12] was “significantly enhanced”, the “pulmonary artery smooth muscle cell proliferation” value [13] was “significantly inhibited” and the fibroblast proliferation [4] was “can also inhibit”. For the same substance, the “development of pulmonary hypertension” value [14] was “significantly inhibited”.

In the case of “heparin [Native heparin, reference compound]”, the apoptosis index [3] is listed as “significantly induces apoptosis”, the fibroblast proliferation [15] is listed as “can inhibit” and the coagulation time [6] is listed as “increased”. The pulmonary fibrosis [16] was “can inhibit” and the “hemorrhage in A549 cell tumor tissue (histology)” value ([7]; 100 mg/kg, SCID mice, FIG. 14) was “Hemorrhage was detected”.
